Experiments:
UGT1A9 [1] = molecular target: T1, UGT1A9 (Homo sapiens, UniProt O60656); assay: Inhibition of fraxetin-O-glucuronide formation by selective UGT1A9 inhibitors; type: biochemical; parameters: purchased Corning Biosciences; details: fraxetin 4 and 20 μM; magnolol 1 μM, niflumic acid 10 μM, androsterone 10 μM
T1 sequence (O60656 26-530): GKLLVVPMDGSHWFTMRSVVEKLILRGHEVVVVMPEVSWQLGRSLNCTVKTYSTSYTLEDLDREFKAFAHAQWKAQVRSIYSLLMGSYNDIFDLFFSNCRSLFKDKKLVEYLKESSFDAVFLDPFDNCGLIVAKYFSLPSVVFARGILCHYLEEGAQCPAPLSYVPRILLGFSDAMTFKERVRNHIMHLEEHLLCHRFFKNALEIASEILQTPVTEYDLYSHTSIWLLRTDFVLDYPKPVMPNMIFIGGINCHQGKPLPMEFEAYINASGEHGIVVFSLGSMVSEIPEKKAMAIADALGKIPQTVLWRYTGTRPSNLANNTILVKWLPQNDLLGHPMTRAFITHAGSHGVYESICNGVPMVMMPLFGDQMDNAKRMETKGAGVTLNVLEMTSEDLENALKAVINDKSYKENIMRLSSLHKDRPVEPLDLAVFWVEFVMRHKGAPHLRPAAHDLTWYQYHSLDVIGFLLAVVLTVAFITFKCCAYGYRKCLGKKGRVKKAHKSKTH
Method: (§1) The incubation system was slightly modified on the basis of a previously published article ([Qin et al., 2018a]). […] After preincubation at 37°C for 5 min, UDPGA (3.5 mM) was added to the reaction system, and the mixture was incubated for another 30 min. These reactions were terminated by the addition of an equal volume of ice-cold acetonitrile. The mixed samples were centrifuged at 13800 × g for 10 min, and the supernatant was analyzed by ultra-high-performance liquid chromatography (UHPLC). All the experiments were conducted in triplicate.
Other detailed operations were the same as described above.

HeLa1A9 cells = assay: Glucuronide excretion experiments in HeLa1A9 cells; type: cell-based, human
Method: The HeLa1A9 cells were pretreated and incubated with fraxetin solutions as reported previously ([Jiang et al., 2011]). Before assays, the HeLa1A9 cells were washed twice with prewarmed (37°C) Hank’s balanced salt solution (HBSS; pH = 7.4). […] At each time point (30, 60, 90, and 120 min), 200 μL of the culture supernatant from each well was collected as samples, and an equal volume of a loading media was used to replenish each well. Next, the collected samples were each mixed with 100 μL ice-cold acetonitrile. The supernatants were subjected to UHPLC analysis after centrifugation (10 min at 13800 × g).
(§2) In addition, the excretion rate of intracellular glucuronides was calculated using Equ. 2. Fraction metabolized or the fmet value was defined as the fraction of a dose metabolized based on Equ. 3. The fmet value was regarded as the more appropriate parameter to reflect the extent of drug metabolism in intact cells in the presence of a transporter–enzyme interplay.
(§3) (2) Excretion rate=VdC(excretedglucuronide)/dt
(§4) where V is the volume of the incubation medium, C is the excreted cumulative concentration of glucuronides, and t denotes the incubation time. Here, dC(excreted glucuronide)/dt describes the changes in glucuronide levels with time.

UGT1A9 [2] = molecular target: T1, UGT1A9
Method: as §1
The enzyme kinetic parameters were obtained by fitting appropriate kinetic models to the experimental data in GraphPad Prism V5 software (San Diego, CA, United States). The best model was selected based on visual inspection of the Eadie–Hofstee plots ([Qin et al., 2018b]). In brief, if the Eadie–Hofstee plot was linear, formation rates (V) of glucuronides at different substrate concentrations (C) were fitted to the standard equations (1): […]
Where Km is the Michaelis–Menten constant, and Vmax is the maximum rate of glucuronidation. The intrinsic clearance (CLint) was computed as Vmax/Km.

MRP3 = molecular target: T2, MRP3 (Homo sapiens, UniProt O15438); assay: shRNA-mediated partial silencing of MRP3 in HeLa1A9 cells, glucuronide excretion; type: cell-based; details: fraxetin 10 μM
T2 construct: BCRP, MRP1, MRP3, and MRP4 were detected in both wild-type HeLa and HeLa1A9 cells; endogenous in cells
Method: (§5) The HeLa1A9 cells were pretreated and incubated with fraxetin solutions as reported previously ([Jiang et al., 2011]). Before assays, the HeLa1A9 cells were washed twice with prewarmed (37°C) Hank’s balanced salt solution (HBSS; pH = 7.4). After that, fraxetin (10 μM) dissolved in 2 mL of HBSS was incubated with the HeLa1A9 cells. At each time point (30, 60, 90, and 120 min), 200 μL of the culture supernatant from each well was collected as samples, and an equal volume of a loading media was used to replenish each well. Next, the collected samples were each mixed with 100 μL ice-cold acetonitrile. The supernatants were subjected to UHPLC analysis after centrifugation (10 min at 13800 × g).
(§6) In glucuronide excretion assays, biological inhibition mainly including shRNA-mediated partial silencing of BCRP and MRPs in HeLa cells was usually performed to evaluate the role of each efflux transporter ([Quan et al., 2015]; [Sun et al., 2015]; [Qin et al., 2018a]). Established shRNA_BCRP, shRNA_MRP1, shRNA_MRP3, and shRNA_MRP4 plasmids were […] transfected into HeLa1A9 cells to develop the stably shRNA-transfected cell lines, named HeLa1A9-BCRP-shRNA cells, HeLa1A9-MRP1-shRNA, HeLa1A9-MRP3-shRNA, and HeLa1A9-MRP4-shRNA cells, respectively. After transfection for 2 days, these engineered HeLa1A9 cells were subjected to fraxetin-O-glucuronide excretion experiments. The control scrambled shRNA served as a negative control.
as §2, §3
(§7) (3) fmet=excreted glucuronide+intracellular glucuronide/dosed aglycone
as §4

MRP4 = molecular target: T3, MRP4 (Homo sapiens, UniProt O15439); assay: shRNA-mediated partial silencing of MRP4 in HeLa1A9 cells, glucuronide excretion; type: cell-based; details: fraxetin 10 μM
T3 construct: BCRP, MRP1, MRP3, and MRP4 were detected in both wild-type HeLa and HeLa1A9 cells; endogenous in cells
T3 sequence (O15439 1-1325): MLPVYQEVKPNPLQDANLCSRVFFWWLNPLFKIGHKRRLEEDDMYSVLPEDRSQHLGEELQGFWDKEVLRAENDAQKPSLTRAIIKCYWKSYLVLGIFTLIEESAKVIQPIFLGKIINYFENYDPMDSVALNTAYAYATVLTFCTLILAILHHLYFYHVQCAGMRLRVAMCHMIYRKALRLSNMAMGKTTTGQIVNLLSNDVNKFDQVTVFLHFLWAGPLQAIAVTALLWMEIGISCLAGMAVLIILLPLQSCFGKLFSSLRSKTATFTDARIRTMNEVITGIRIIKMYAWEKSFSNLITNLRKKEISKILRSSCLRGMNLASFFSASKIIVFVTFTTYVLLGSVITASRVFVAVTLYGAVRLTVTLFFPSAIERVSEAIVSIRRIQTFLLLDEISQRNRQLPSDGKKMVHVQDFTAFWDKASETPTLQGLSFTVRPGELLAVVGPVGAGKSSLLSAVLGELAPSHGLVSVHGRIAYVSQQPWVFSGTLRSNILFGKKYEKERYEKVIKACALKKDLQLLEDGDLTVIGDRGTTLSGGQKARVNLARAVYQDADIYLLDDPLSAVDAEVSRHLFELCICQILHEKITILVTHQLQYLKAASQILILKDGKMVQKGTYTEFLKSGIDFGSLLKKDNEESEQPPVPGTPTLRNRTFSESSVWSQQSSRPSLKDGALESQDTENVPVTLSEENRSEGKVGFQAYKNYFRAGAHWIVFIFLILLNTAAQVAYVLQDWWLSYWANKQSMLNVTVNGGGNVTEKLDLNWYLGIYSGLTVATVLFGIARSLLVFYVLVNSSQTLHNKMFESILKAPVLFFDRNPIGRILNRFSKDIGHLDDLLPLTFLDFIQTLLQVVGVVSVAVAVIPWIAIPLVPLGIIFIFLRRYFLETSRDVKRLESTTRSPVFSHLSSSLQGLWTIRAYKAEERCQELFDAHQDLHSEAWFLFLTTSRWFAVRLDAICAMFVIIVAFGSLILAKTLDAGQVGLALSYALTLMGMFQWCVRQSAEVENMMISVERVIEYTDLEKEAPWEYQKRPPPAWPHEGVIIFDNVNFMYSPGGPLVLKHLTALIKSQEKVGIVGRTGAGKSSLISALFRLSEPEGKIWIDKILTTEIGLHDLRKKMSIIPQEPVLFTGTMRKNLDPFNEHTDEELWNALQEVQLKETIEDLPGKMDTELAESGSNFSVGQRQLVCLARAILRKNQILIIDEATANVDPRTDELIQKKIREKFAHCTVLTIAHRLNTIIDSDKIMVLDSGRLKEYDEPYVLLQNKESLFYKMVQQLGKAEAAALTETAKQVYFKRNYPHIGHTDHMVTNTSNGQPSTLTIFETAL
Method: as §5, §6, §2, §3, §7, §4

T2 sequence (O15438 whole entry): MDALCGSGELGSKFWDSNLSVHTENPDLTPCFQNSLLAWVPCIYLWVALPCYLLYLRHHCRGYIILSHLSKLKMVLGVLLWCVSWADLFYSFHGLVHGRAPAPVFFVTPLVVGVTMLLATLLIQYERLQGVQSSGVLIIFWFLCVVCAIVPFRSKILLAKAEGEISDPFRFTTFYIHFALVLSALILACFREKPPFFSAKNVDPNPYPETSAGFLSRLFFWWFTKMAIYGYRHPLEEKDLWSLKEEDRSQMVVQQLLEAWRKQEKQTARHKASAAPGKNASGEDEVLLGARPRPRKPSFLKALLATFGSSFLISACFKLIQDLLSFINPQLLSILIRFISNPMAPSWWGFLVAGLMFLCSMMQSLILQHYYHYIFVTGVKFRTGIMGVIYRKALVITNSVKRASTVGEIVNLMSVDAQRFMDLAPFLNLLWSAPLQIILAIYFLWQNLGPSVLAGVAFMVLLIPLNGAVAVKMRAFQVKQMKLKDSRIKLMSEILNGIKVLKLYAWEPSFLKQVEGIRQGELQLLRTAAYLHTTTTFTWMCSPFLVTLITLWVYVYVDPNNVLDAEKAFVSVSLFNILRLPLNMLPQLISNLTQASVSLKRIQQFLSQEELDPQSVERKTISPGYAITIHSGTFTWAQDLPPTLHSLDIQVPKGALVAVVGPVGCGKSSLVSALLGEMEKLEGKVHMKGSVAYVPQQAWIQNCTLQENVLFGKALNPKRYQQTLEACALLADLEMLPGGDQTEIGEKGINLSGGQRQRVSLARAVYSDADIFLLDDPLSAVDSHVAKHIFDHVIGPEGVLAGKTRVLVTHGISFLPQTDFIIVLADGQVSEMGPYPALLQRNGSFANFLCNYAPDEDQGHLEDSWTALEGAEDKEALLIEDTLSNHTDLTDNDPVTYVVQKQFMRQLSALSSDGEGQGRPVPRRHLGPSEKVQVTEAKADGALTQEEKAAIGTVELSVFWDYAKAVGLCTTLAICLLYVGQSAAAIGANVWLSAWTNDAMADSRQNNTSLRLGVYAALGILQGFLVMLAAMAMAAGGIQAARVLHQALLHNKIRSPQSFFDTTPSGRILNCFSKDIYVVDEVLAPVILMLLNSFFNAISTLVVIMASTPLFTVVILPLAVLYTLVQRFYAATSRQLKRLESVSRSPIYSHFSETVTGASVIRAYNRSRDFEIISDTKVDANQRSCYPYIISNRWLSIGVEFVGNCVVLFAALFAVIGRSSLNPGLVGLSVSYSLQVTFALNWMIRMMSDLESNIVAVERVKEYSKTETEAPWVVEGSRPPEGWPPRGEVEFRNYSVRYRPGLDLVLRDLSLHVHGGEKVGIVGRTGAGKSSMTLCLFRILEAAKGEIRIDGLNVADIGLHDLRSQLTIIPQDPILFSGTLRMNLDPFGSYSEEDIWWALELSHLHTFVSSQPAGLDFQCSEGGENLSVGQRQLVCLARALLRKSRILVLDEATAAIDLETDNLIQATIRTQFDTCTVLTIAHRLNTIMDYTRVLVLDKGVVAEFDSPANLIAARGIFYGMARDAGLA

C=CCc1ccc(O)c(-c2cc(CC=C)ccc2O)c1 [magnolol]
effect on formation of G1 and G2 (UGT1A9 [1]): significantly inhibited

CC(C)c1cccc(C(C)C)c1O[C@@H]1O[C@H](C(=O)O)[C@@H](O)[C@H](O)[C@H]1O [propofol-O-glucuronide]
excretion rate (HeLa1A9 cells; propofol 40 μM incubated with HeLa1A9 cells): 0.053 pmol/min | excretion rate (HeLa1A9 cells; propofol 80 μM incubated with HeLa1A9 cells): 0.070 pmol/min

COc1cc2ccc(=O)oc2c(O)c1O[C@@H]1O[C@H](C(=O)O)[C@@H](O)[C@H](O)[C@H]1O [G2, fraxetin-7-O-glucuronide]
Km (UGT1A9 [2]): 8 to 16 µM | excretion with elevation of the fraxetin concentration (HeLa1A9 cells; fraxetin 5, 10 and 20 μM, HeLa1A9 cells): markedly increased | decrease in fraction metabolized (fmet; overall cellular glucuronidation) (MRP3; MRP3 knockdown): 18.6% | reduction in excretion rate (MRP3; MRP3 knockdown): 21.1% | reduction in excreted glucuronide (MRP3; MRP3 knockdown, HeLa1A9 cells): 15.1–31.9% | elevation of intracellular glucuronide level (MRP3; MRP3 silencing): 45.4% | decrease in fraction metabolized (fmet) (MRP4): 23.1% | elevation of intracellular glucuronide (MRP4): 52.4% | reduction in excretion rate (MRP4): 32.3% | decreased excretion of glucuronide (MRP4; HeLa1A9 cells): 33.0–42.4%
